Data set [1] relates to L. infantum (MHOM/MA/67/ITMAP-263) axenic amastigotes. In words: In vivo anti-amastigote activity in BALB/c mice infection model (limiting dilution parasite burden). The note with it: spleen, liver, bone marrow; URB1483 5 mg/kg/day IP in 60% PEG 400, 10 days; 5 mg/kg/day. The procedure:
The compound URB1483 was selected for the in vivo evaluation on a BALB/c mice infection model. Six- to seven-week-old BALB/c mice were purchased from Charles River Laboratories (Barcelona, Spain) or the I3S (Porto, Portugal) animal facility. Luciferase-expressing L. infantum (MHOM/MA/67/ITMAP-263) axenic amastigotes were cultured in complete cell-free medium MAA/20 [20] at 37°C with 5% CO2. Five-day-old cultures of amastigotes were washed twice with PBS and resuspended at a concentration of 1×10^9 parasites/Ml. A total of 17 mice were infected with 100 μL of parasite suspension containing 1×10^8 parasites. The injection was performed intra-venously (IV) in the tails of mice, and treatments started 21 days post-infection for 10 consecutive days. Formulation studies are reported in the Supporting Information (S1 Table in S1 File). […]
Mice well-being-assessment was checked every two days, in terms of weight control and the presence of stress signs. […] Spleen and liver were weighted, and bone marrow cells were counted with automatic cell counter EVE^TM (NanoEnTek, Seul, Korea). […] For bone marrow, the number of parasites was calculated per 10^5 cells using the formula: [(geometric mean of reciprocal titer from each triplicate/number of cells) × reciprocal fraction of the cells inoculated into the first well]. […]

A short description of data set [2]: Formulation (solubility and stability) study of URB1483. It counts as physicochemical. The note with it: for Solubility: 48-72 h at 37 °C. The procedure: Equivalence calculation between URB1483 concentration and injectable dose (mg/kg) […]
Considering an average mice weight of 25 g and an IP injectable volume of 100 μL, the following […]
correspondence can be considered:
[URB1483](mg/mL) = Dose (mg/kg) ∙ 0.025 (kg)
[URB1483](mM) = Dose (mg/kg) ∙0.025 (kg)
General procedure for the formulation study
To the indicated volume of the URB1483 stock solution in DMSO (25.0 mg/mL , 50.24 mM) were […]
added the appropriate volume or weight of excipient and the resulting mixture was heated at 37 °C […]
and sonicated for 10-20 min. Finally, distilled water was added to reach the final volume of 1 mL […]
(Table S1). The resulting formulation was ma intained at 37 °C under stirring for 48-72 h. At regular […]
time points, aliquots of the described formulations were sampled, centrifuged (8000 rpm, 10 min), […]
and two volumes of acetonitrile were added. After further centrifugation (8000 rpm, 10 min), the […]
resulted clear samples were analyzed by HPLC -ESI-MS for a percentage of the remaining compound.
URB1483 was considered soluble and stable in the formulation with more than 90% of the compoun d […]
Table S1 – Preliminary Formulation Study on URB1483[a]
Entry Final Dose Stock Solution URB1483 Volume Excipient Solubility[b]
2[c] 1 mg/kg 5 μL DMSO (95 μL) 🗶
3[c] 1 mg/kg 5 μL DMSO (195 μL) ✓
[a] DMSO = dimethylsulfoxide; PG = propylene glycol; PEG = polyethylene glycol; HPBC = 2-hydropropyl- […]
β-cyclodextrin. [b] URB1483 was considered soluble and stable with more than 90% of the compound […]
remaining unaltered after 48-72 h at 37 °C, by HPLC-ESI-MS analysis. [c] Instead of water, a physiological […]
solution (saline) was utilized.

The subject of data set [3] is L. infantum MHOM/TN/80/IPT1 promastigotes. Further details: method as in PMID 34984300. The note with it: read-out: IC50 against L. infantum promastigotes; cited from earlier work.
For a further data set, the system named is THP-1 cells. Further details: method as in PMID 34984300. The following applies: cited from earlier work.
For data set [4], the system named is L. infantum intracellular amastigotes. Also noted: method as in PMID 34984300. The following applies: compared with pentamidine; cited from earlier work.
Data set [5] has as its system THP-1, DH82, HepG2, HaCaT and HPF cells. Further details: method as in PMID 34984300. The following applies: cited from earlier work.

“And” between values parts separate entries of the source, which are not always exact repeats. Identical values can stand only once. “Also recorded” adds a separate entry of the source. Some results are limits rather than exact numbers.

The IC50 is the concentration that inhibits the measured activity by half. As a reminder, the CC50 is the concentration at which the toxic effect on the cells reaches its halfway point. `CCOC(=O)c1c(C(=O)OC)cn(CC(c2cn(C)c3ccccc23)c2cn(C)c3ccccc23)c1C` [URB1483]: the “effect on parasite burden (in vivo efficacy)” value in data set [1] is “did not significantly reduce parasite burden; also recorded: No in vivo efficacy; also recorded: could not reduce parasite burden; also recorded: ineffective”. In addition, the water solubility result in data set [2] is listed as “Poorly soluble in water; also recorded: very poor water solubility; also recorded: poor water solubility”. The maximum injectable concentration in data set [2] (60% PEG 400 in water, 1.25 mg/mL, mouse weight 25 g, injection volume 100 μL) came out at 5 mg/kg. For the same compound, the Solubility result in data set [2] (entry 3: final dose 1 mg/kg, DMSO (195 μL), saline) was “✓ (URB1483 was considered soluble and stable with more than 90% of the compound remaining unaltered after 48-72 h at 37 °C, by HPLC-ESI-MS analysis)”; in data set [2] (entry 6: final dose 1 mg/kg, PG (600 mg), water) it was “✓ (URB1483 was considered soluble and stable with more than 90% of the compound remaining unaltered after 48-72 h at 37 °C, by HPLC-ESI-MS analysis)”; in data set [2] (entry 9: final dose 1 mg/kg, PEG 400 (400 mg), water), “✓ (URB1483 was considered soluble and stable with more than 90% of the compound remaining unaltered after 48-72 h at 37 °C, by HPLC-ESI-MS analysis)”; in data set [2] (entry 11: final dose 1 mg/kg, PEG 400 (500 mg), water), “✓ (URB1483 was considered soluble and stable with more than 90% of the compound remaining unaltered after 48-72 h at 37 °C, by HPLC-ESI-MS analysis)”; in data set [2] (entry 12: final dose 2 mg/kg, PEG 400 (500 mg), water), “✓ (URB1483 was considered soluble and stable with more than 90% of the compound remaining unaltered after 48-72 h at 37 °C, by HPLC-ESI-MS analysis)”; in data set [2] (entry 14: final dose 1 mg/kg, PEG 400 (600 mg), water), “✓ (URB1483 was considered soluble and stable with more than 90% of the compound remaining unaltered after 48-72 h at 37 °C, by HPLC-ESI-MS analysis)”. The Solubility result in data set [2] (entry 15: final dose 2 mg/kg, PEG 400 (600 mg), water) is “✓ (URB1483 was considered soluble and stable with more than 90% of the compound remaining unaltered after 48-72 h at 37 °C, by HPLC-ESI-MS analysis)”; in data set [2] (entry 16: final dose 5 mg/kg, PEG 400 (600 mg), water), “✓ (URB1483 was considered soluble and stable with more than 90% of the compound remaining unaltered after 48-72 h at 37 °C, by HPLC-ESI-MS analysis)”; in data set [2] (entry 19: final dose 1 mg/kg, HPBC (400 mg), water), “✓ (URB1483 was considered soluble and stable with more than 90% of the compound remaining unaltered after 48-72 h at 37 °C, by HPLC-ESI-MS analysis)”. Besides, the IC50 in data set [3] was 3.7 µM and 4 µM. Moreover, the CC50 in the data set on THP-1 cells was over 200 µM. Besides, the “selectivity index (SI)” value with THP-1 cells is listed as “greater than 55”. Further, the “efficacy on in vitro infection model” value in data set [4] is reported as “comparable to that of the commercial drug pentamidine”. Also, the “toxicity on mammalian cell lines” value in data set [5] was “did not affect the viability; also recorded: No toxicity”.

(Values after publication PMC11175440, “Exploring hydrophilic 2,2-di(indol-3-yl)ethanamine derivatives against Leishmania infantum” (PLOS ONE, 2024).)
